One data set addresses T1, human recombinant PDE10A (Homo sapiens, UniProt Q9Y233).
T1 construct: made in house; host or cells: SF21 insect cells (baculovirus)
The data set is described as follows: Inhibition of human recombinant PDE10A ([3H]-cAMP SPA, Method B). The data set is classed as biochemical. The conditions noted are these: read-out: PDE10 inhibition IC50 [nM] PDE10A human. The procedure:
The gene was than inserted into a baculovirus vector, ligated with the baculovirus DNA. The enzyme-protein was expressed in SF21-cells. The enzyme was isolated from these cells by harvesting the cells by a centrifugation at 200 g to collect the cells. The cells were resuspended in 50 mM Tris-HCl/5 mM MgCl2 buffer (pH=7.4) and lysed by a sonication of the cells. The cytosolic PDE10A was obtained by a centrifugation at 48000 g for 1 h in the supernatant and stored at −70° C. PDE10 activity was determined in a one step procedure in microtiterplates. […] Nonspecific activity was tested without the enzyme. The reaction was initiated by addition of the substrate solution and was carried out at 37° C. for 30 minutes. Enzymatic activity was stopped by addition of 25 μl YSi-SPA-beads (Amersham-Pharmacia). One hour later the mixture was measured in a liquid scintillation counter for microtiterplates (Microbeta Trilux). To pipette the incubation mixture a robot Biomek (Fa. Beckman) is used. […] For determination of IC50 values the Hill-plot, 2-parameter-model, was used.

The next data set deals with PDE10 from pig striatum (Sus scrofa, UniProt A0A287B941). The data set is described as follows: Inhibition of PDE10 from pig striatum ([3H]-cAMP SPA, Methods A and B). The settings on record: PDE10 pig. The data set is classed as biochemical. The procedure:
Striatum from male Wistar rats (180-200 g), male hybrid pigs (150 kg) and male guinea pigs (CRL (HA), 500 g) respectively were collected and frozen at −70° C. At the day of preparation 0.5 g striatum was homogenised in 10 ml 50 mM Tris/Mg-buffer at 4° C. and centrifuged for one hour at 100000 g. The supernatant is called the cytosolic fraction and was removed and stored on ice. The pellet was resuspended in the same buffer, but containing 1% Triton and incubated for 45 min at 4° C. Both fractions were independently applied onto a 5 ml Hi Trap™ QHP column at the Äkta-FPLC. After washing the columns the bound PDE protein was eluted with an increasing sodium chloride gradient (0 mM-500 mM sodium chloride) in 50 mM Tris/Mg-buffer at 4° C. for the cytosolic fraction and in the presence of 1% Triton for the membrane fraction. […] The fractions with PDE10-activity were pooled and frozen in aliquots until use at −20° C. PDE10 activity was determined in a one step procedure in microtiter plates. […] Nonspecific activity was tested without the enzyme. The reaction was initiated by addition of the substrate solution and was carried out at 37° C. for 30 minutes. Enzymatic activity was stopped by addition of 25 μl YSi-SPA-beads (Amersham-Pharmacia). One hour later the mixture was measured in a liquid scintillation counter for microtiter plates (Microbeta Trilux). To pipette the incubation mixture a robot Biomek (Fa. Beckman) is used. […] For determination of IC50 values the Hill-plot, 2-parameter-model, was used. […] Striatum from male hybrid pigs (150 kg) were collected and frozen at −70° C. At the day of preparation 0.5 g striatum was homogenised in 10 ml 50 mM Tris/Mg-buffer at 4° C. and centrifuged for one hour at 100000 g. The supernatant was removed and the pellet was resuspended in the same buffer, but containing 1% Triton and incubated for 45 min at 4° C. The membrane fraction was applied onto a 5 ml Hi Trap™ QHP column at the Äkta-FPLC. After washing the column the bound PDE protein was eluted with an increasing sodium chloride gradient (0 mM-500 mM sodium chloride) in 50 mM Tris/Mg-buffer at 4° C. in the presence of 1% Triton. […] The fractions with PDE10-activity were pooled and frozen in aliquots until use at −20° C. PDE10 activity was determined in a one step procedure in microtiterplates. […] Nonspecific activity was tested without the enzyme. The reaction was initiated by addition of the substrate solution and was carried out at 37° C. for 30 minutes. Enzymatic activity was stopped by addition of 25 μl YSi-SPA-beads (Amersham-Pharmacia). One hour later the mixture was measured in a liquid scintillation counter for microtiterplates (Microbeta Trilux). To pipette the incubation mixture a robot Biomek (Fa. Beckman) is used. […] For determination of IC50 values the Hill-plot, 2-parameter-model, was used.

T1 sequence (Q9Y233 1-779 isoform Q9Y233-1): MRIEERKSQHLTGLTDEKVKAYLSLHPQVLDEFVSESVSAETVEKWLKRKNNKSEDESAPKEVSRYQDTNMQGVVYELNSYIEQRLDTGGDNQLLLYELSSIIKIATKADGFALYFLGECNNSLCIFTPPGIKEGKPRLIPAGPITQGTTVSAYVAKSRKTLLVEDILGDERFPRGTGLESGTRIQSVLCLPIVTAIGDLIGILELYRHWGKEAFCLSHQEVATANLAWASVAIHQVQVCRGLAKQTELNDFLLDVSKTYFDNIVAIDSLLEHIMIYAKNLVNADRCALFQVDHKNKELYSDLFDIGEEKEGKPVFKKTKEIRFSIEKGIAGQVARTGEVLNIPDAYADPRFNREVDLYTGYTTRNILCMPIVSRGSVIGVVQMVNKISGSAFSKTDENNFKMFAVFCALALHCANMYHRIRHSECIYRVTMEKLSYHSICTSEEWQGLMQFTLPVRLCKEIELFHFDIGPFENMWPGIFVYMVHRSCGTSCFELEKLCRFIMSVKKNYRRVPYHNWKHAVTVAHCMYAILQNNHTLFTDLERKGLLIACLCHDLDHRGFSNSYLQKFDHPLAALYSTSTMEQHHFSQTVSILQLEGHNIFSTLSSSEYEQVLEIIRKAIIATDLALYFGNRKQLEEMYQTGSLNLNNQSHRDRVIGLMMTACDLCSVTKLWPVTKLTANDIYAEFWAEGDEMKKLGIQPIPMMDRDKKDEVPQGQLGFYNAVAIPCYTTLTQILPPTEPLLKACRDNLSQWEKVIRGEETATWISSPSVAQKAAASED

Broadly, the IC50 is the concentration that gives 50% inhibition. For the molecule “7-Methoxy-3-methyl-1-propyl-imidazo[1,5-a]quinoxalin-4-ylamine [Example 41]”, the 50% inhibitory concentration (IC50) at human recombinant PDE10A and against PDE10 from pig striatum was 10 to 100 nM each time.

Usually melting point stands for the temperature, or range, at which the solid turns liquid. For the molecule `CCc1nc(C)c2c(N)nc3ccccc3n12` [Example 3, 1-Ethyl-3-methyl-imidazo(1,5-a)quinoxalin-4-ylamine], the melting point was in the range of 192 to 195 °C. On PDE10 from pig striatum, this molecule gave an IC50 of at least 100 nM.

In turn, `CCCc1nc(C)c2c(N)nc3ccc(OC)cc3n12` [Example 7, 8-Methoxy-3-methyl-1-propyl-imidazo(1,5-a)quinoxalin-4-ylamine] returned a melting point of 201 to 203 °C. At human recombinant PDE10A, the IC50 lay within 10 to 100 nM.

In the case of `Cc1nc(-c2ccccc2Cl)n2c1c(C)nc1ccc(F)cc12` [Example 15, 1-(2-Chlorphenyl)-3,4-dimethyl-8-fluoro-imidazo(1,5-a)quinoxaline], the IC50 was 10 to 100 nM on human recombinant PDE10A and at most 10 nM against PDE10 from pig striatum.

For `CCCc1nc(C)c2c(C)nc3ccc(OC)cc3n12` [Example 16, 3,4-Dimethyl-8-methoxy-1-propyl-imidazo(1,5-a)quinoxaline], the melting point lay in the range of 99 to 101 °C. At human recombinant PDE10A, the half-maximal inhibitory concentration (IC50) is 10 to 100 nM.

On to `Cc1ccccc1-c1nc(C)c2c(C)nc3ccc(F)cc3n12` [Example 25, 8-Fluoro-3,4-dimethyl-1-(2-methylphenyl)imidazo[1,5-a]quinoxaline], for which the concentration for half-maximal inhibition (IC50) against PDE10 from pig striatum was at most 10 nM.

Consider `Cc1cccc(-c2nc(C)c3c(C)nc4ccc(F)cc4n23)c1` [Example 26, 8-Fluoro-3,4-dimethyl-1-(3-methylphenyl)imidazo[1,5-a]quinoxaline], for which the 50% inhibitory concentration (IC50) on PDE10 from pig striatum was in the range of 10 to 100 nM.

Turning to `Cc1nc(-c2ccccc2C(F)(F)F)n2c1c(C)nc1ccc(F)cc12` [Example 27, 8-Fluoro-3,4-dimethyl-1-[2-(trifluoromethyl)phenyl]imidazo[1,5-a]quinoxaline], the half-inhibitory concentration (IC50) against PDE10 from pig striatum lay in the range of 10 to 100 nM.

Take `Cc1nc(-c2ccccc2OC(F)(F)F)n2c1c(C)nc1ccc(F)cc12` [Example 28, 8-Fluoro-3,4-dimethyl-1-[2-(trifluoromethoxy)phenyl]imidazo[1,5-a]quinoxaline]: the half-maximal inhibitory concentration (IC50) at human recombinant PDE10A was at least 100 nM; against PDE10 from pig striatum, 10 to 100 nM.

As to `Cc1ccsc1-c1nc(C)c2c(C)nc3ccc(F)cc3n12` [Example 29, 8-Fluoro-3,4-dimethyl-1-(3-methyl-2-thienyl)imidazo[1,5-a]quinoxaline], the half-maximal inhibitory concentration (IC50) on human recombinant PDE10A and against PDE10 from pig striatum was 10 to 100 nM each time.

In turn, `Cc1noc(C)c1-c1nc(C)c2c(C)nc3ccc(F)cc3n12` [Example 30, 1-(3,5-Dimethylisoxazol-4-yl)-8-fluoro-3,4-dimethylimidazo[1,5-a]quinoxaline] yielded a 50% inhibitory concentration (IC50) against PDE10 from pig striatum of at least 100 nM.

`COc1ccc2nc(N)c3c(C)nc(C4CCCCC4)n3c2c1` [Example 38, 1-Cyclohexyl-8-methoxy-3-methyl-imidazo[1,5-a]quinoxalin-4-ylamine] showed a melting point of 211 to 212 °C. The concentration for half-maximal inhibition (IC50) on human recombinant PDE10A is 10 to 100 nM.

Turning to `CCCc1nc(C)c2c(N)nc3ccc(OCC4CC4)cc3n12` [Example 39, 8-Cyclopropylmethoxy-3-methyl-1-propyl-imidazo[1,5-a]quinoxalin-4-ylamine], the melting point lay within 163 to 167 °C. Also, on human recombinant PDE10A, the IC50 lay within 10 to 100 nM.

Regarding `COc1ccc2nc(C)c3c(C)nc(C4CCCCC4)n3c2c1` [Example 43, 1-Cyclohexyl-8-methoxy-3,4-dimethyl-imidazo[1,5-a]quinoxaline], the melting point is 165 to 169 °C. Further, the concentration for half-maximal inhibition (IC50) on human recombinant PDE10A is 10 to 100 nM.

In turn, `CCCc1nc(C)c2c(C)nc3c(OCC(F)(F)F)cc(OCC(F)(F)F)cc3n12` [Example 46, 3,4-Dimethyl-1-propyl-6,8-bis-(2,2,2-trifluoro-ethoxy)-imidazo[1,5-a]quinoxaline] gave a melting point of 200 to 206 °C. In addition, the IC50 on human recombinant PDE10A is at least 100 nM.

With `CCCc1nc(C)c2c(C)nc3cc(OC)ccc3n12` [Example 48, 7-Methoxy-3,4-dimethyl-1-propyl-imidazo[1,5-a]quinoxaline], the melting point lay within 111 to 117 °C. For the same molecule, the IC50 on human recombinant PDE10A is 10 to 100 nM.

As to `Cc1ccccc1-c1nc(C)c2c(C)nc3c(O)cc(O)cc3n12` [Example 54, 6,8-Dihydroxy-3,4-dimethyl-1-(2-methylphenyl)-imidazo[1,5-a]quinoxaline], the values for the IC50 on human recombinant PDE10A and at PDE10 from pig striatum were 10 to 100 nM and at most 10 nM, respectively.

For the molecule `Cc1nc(-c2ccccc2Cl)n2c1c(C)nc1cc(O)ccc12` [Example 55, 1-(2-Chlorophenyl)-3,4-dimethyl-7-hydroxy-imidazo(1,5-a)quinoxaline], the IC50 at human recombinant PDE10A and at PDE10 from pig striatum was 10 to 100 nM throughout.

Regarding `Cc1ccccc1-c1nc(C)c2c(C)nc3c(OC(F)F)cc(OC(F)F)cc3n12` [Example 56, 6,8-Bis-difluoromethoxy-3,4-dimethyl-1-(2-methylphenyl)-imidazo(1,5-a)quinoxaline], the IC50 at human recombinant PDE10A and against PDE10 from pig striatum was at most 10 nM in each case.

In the case of `Cc1nc(-c2ccccc2Cl)n2c1c(C)nc1cc(OCc3c(F)cccc3F)ccc12` [Example 57, 1-(2-Chloro-phenyl)-7-(2,6-difluorobenzyloxy)-3,4-dimethyl-imidazo(1,5-a)quinoxaline], the figures for the half-inhibitory concentration (IC50) on human recombinant PDE10A and at PDE10 from pig striatum were 10 to 100 nM and at most 10 nM, respectively.

Consider `Cc1nc(-c2ccccc2Cl)n2c1c(C)nc1cc(OCc3ccc4ccccc4n3)ccc12` [Example 58, 1-(2-Chloro-phenyl)-7-(quinolin-2-ylmethoxy)-3,4-dimethyl-imidazo(1,5-a)quinoxaline], for which the half-maximal inhibitory concentration (IC50) on human recombinant PDE10A and against PDE10 from pig striatum was at most 10 nM throughout.

Regarding `Cc1nc(-c2ccccc2Cl)n2c1c(C)nc1cc(OCc3cccc([N+](=O)[O-])c3)ccc12` [Example 59, 1-(2-Chloro-phenyl)-3,4-dimethyl-7-(3-nitrobenzyloxy)-imidazo(1,5-a)quinoxaline], the results for the half-inhibitory concentration (IC50) on human recombinant PDE10A and against PDE10 from pig striatum were 10 to 100 nM and at most 10 nM, respectively.

For `Cc1nc(-c2ccccc2Cl)n2c1c(C)nc1cc(OCc3cccc(N)c3)ccc12` [Example 60, 7-(3-Aminobenzyloxy)-1-(2-chlorophenyl)-3,4-dimethyl-imidazo(1,5-a)quinoxaline], the IC50 on human recombinant PDE10A was 10 to 100 nM; against PDE10 from pig striatum, at most 10 nM.

Consider `CNC(=O)Nc1cccc(COc2ccc3c(c2)nc(C)c2c(C)nc(-c4ccccc4Cl)n23)c1` [Example 61, N-1-{3-[1-(2-Chlorophenyl)-3,4-dimethyl-imidazo(1,5-a)quinoxalin-7-yloxymethyl]-phenyl}-N′-methyl-urea], for which the results for the half-maximal inhibitory concentration (IC50) at human recombinant PDE10A and against PDE10 from pig striatum were 10 to 100 nM and at most 10 nM, respectively.

`COc1cc(F)cc2c1nc(C)c1c(C)nc(-c3ccc(F)c(C(N)=O)c3)n12` [Example 86, 2-fluoro-5-(8-fluoro-6-methoxy-3,4-dimethylimidazo[1,5-a]quinoxalin-1-yl)benzamide] gave an IC50 on PDE10 from pig striatum of at most 10 nM.

Regarding `CCc1nc(C)c2c(Cl)nc3ccc(N4CCCCC4)cc3n12` [Intermediate B2, 4-Chloro-1-ethyl-3-methyl-8-piperidin-1-yl-imidazo(1,5-a)quinoxaline], the IC50 against PDE10 from pig striatum was 10 to 100 nM.

For `Cc1nc(-c2ccccc2Cl)n2c1c(Cl)nc1ccc(F)cc12` [Intermediate B8], the half-maximal inhibitory concentration (IC50) on PDE10 from pig striatum was at most 10 nM.

Molecule `COc1ccc2nc(Cl)c3c(C)nc(C4CCCCC4)n3c2c1` [Intermediate B11] had a melting point of 212 to 215 °C.

In the case of `Cc1nc(C2CCCCC2)n2c1c(Cl)nc1ccc(OCC3CC3)cc12` [Intermediate B13], the melting point fell in the range of 165 to 168 °C.

The molecule `CCCc1nc(C)c2c(Cl)nc3cc(OC)ccc3n12` [Intermediate B15] showed a melting point of 154 to 159 °C.

Source of the values: patent US7875618B2, “Substituted imidazo[1,5-a]quinoxalines useful as inhibitors of phosphodiesterase 10 for the treatment of neurological and other disorders” (Wyeth, priority 2007, dated 2011).
